In patent US9549556B2, “Macrocyclic picolinamides as fungicides” (DOW AGROSCIENCES LLC, priority 2013, dated 2017):
Like-named read-outs stand apart in the source and are kept apart here.

Experiments:
[1] = test system: Colletotrichum lagenarium; test: Cucumber anthracnose (COLLLA) disease control; assay type: in vivo, Glomerella lagenarium (anamorph Colletotrichum lagenarium); conditions: 1 DP, 100 ppm
Septoria tritici = test: Leaf blotch of wheat (SEPTTR) disease control on wheat seedlings; assay type: in vivo, Mycosphaerella graminicola (anamorph Septoria tritici); conditions: Zymoseptoria tritici, read-out: SEPTTR disease control rating (% Control); for pest or weed control at 121.5 g/ha: 121.5 g/H, low volume (track spray) application; for pest or weed control at 100 ppm: high volume application
Description: Evaluation of Fungicidal Activity: Leaf Blotch of Wheat (Mycosphaerella graminicola; Anamorph: Septoria tritici; Bayer Code […]) Technical grades of materials were dissolved in acetone, which were then mixed with nine volumes of water containing 110 ppm Triton X-100. The fungicide solutions were applied onto wheat seedlings using an automated booth sprayer to run-off. All sprayed plants were allowed to air dry prior to further handling. All fungicides were evaluated using the aforementioned method for their activity vs. all target diseases. Wheat leaf blotch and brown rust activity were also evaluated using track spray applications, in which case the fungicides were formulated as EC formulations, containing 0.1% Trycol 5941 in the spray solutions. Wheat plants (variety Yuma) were grown from seed in a greenhouse in 50% mineral soil/50% soil-less Metro mix until the first leaf was fully emerged, with 7-10 seedlings per pot. These plants were inoculated with an aqueous spore suspension of Septoria tritici either prior to or after fungicide treatments. After inoculation the plants were kept in 100% relative humidity (one day in a dark dew chamber followed by two to three days in a lighted dew chamber at 20° C.) to permit spores to germinate and infect the leaf. The plants were then transferred to a greenhouse set at 20° C. for disease to develop. When disease symptoms were fully expressed on the 1st leaves of untreated plants, infection levels were assessed on a scale of 0 to 100 percent disease severity. Percent disease control was calculated using the ratio of disease severity on treated plants relative to untreated plants.

Rhyncosporium secalis = test: Barley scald (RHYNSE) disease control; assay type: in vivo; conditions: 1 DP, 100 ppm
Puccinia triticina = test: Wheat brown rust (PUCCRT) disease control on wheat seedlings; assay type: in vivo; conditions: read-out: PUCCRT disease control rating (% Control); for pest or weed control at 121.5 g/ha: 121.5 g/H, low volume (track spray) application; for pest or weed control at 100 ppm: high volume application
Alternaria solani = test: Tomato early blight (ALTESO) disease control; assay type: in vivo; conditions: 1 DP, 100 ppm
Erysiphe cichoracearum = test: Powdery mildew of cucumber (ERYSCI) disease control; assay type: in vivo; conditions: 1 DP, 100 ppm
[2] = test system: Blumeria graminis f. sp. hordei; test: Barley powdery mildew (ERYSGH) disease control; assay type: in vivo; conditions: 1 DP, 100 ppm
Leptosphaeria nodorum = test: Wheat glume blotch (LEPTNO) disease control; assay type: in vivo; conditions: 1 DP, 100 ppm
Cercospora beticola = test: Leaf spot of sugar beets (CERCBE) disease control; assay type: in vivo; conditions: 1 DP, 100 ppm, sugar beet
Pyricularia oryzae = assay type: in vivo, Magnaporthe grisea (anamorph Pyricularia oryzae); conditions: 1 DP, 100 ppm, rice
Uncinula necator = test: Grape powdery mildew (UNCINE) disease control; assay type: in vivo; conditions: 1 DP, 100 ppm

Compound | pest or weed control at 121.5 g/ha (Septoria tritici; 24 h, 1DP (1 Day Protectant)) | pest or weed control at 121.5 g/ha (Septoria tritici; 72 h, 3DC (3 Day Curative)) | pest or weed control at 121.5 g/ha (Puccinia triticina; 24 h, 1DP (1 Day Protectant)) | pest or weed control at 121.5 g/ha (Puccinia triticina; 72 h, 3DC (3 Day Curative)) | melting point | pest or weed control at 100 ppm (Septoria tritici; 24 h, 1DP (1 Day Protectant)) | pest or weed control at 100 ppm (Septoria tritici; 72 h, 3DC (3 Day Curative)) | pest or weed control at 100 ppm (Puccinia triticina; 24 h, 1DP (1 Day Protectant)) | pest or weed control at 100 ppm (Puccinia triticina; 72 h, 3DC (3 Day Curative)) | also measured
CCCC[C@H]1[C@H](C)OC(=O)[C@@H](NC(=O)c2nccc(OC)c2OC(C)=O)COC[C@@H]1OCC1CC1 [Compound 9] | > 70% | > 70% | > 70% | > 70% | – | – | – | – | – | COLLLA disease control rating (% Control) [1]: A (>70); RHYNSE disease control rating (% Control) (Rhyncosporium secalis): A (>70); ALTESO disease control rating (% Control) (Alternaria solani): B (≦70); ERYSCI disease control rating (% Control) (Erysiphe cichoracearum): B (≦70); ERYSGH disease control rating (% Control) [2]: B (≦70); LEPTNO disease control rating (% Control) (Leptosphaeria nodorum): A (>70); CERCBE disease control rating (% Control) (Cercospora beticola): B (≦70); PYRIOR disease control rating (% Control) (Pyricularia oryzae): B (≦70); UNCINE disease control rating (% Control) (Uncinula necator): A (>70)
COc1ccnc(C(=O)N[C@H]2COC[C@H](Oc3ccccc3)[C@@H](Cc3ccccc3)[C@H](C)OC2=O)c1O [Compound 77] | – | – | – | – | 49 to 54 °C | – | – | – | – | –
CCCO[C@H]1COC[C@H](NC(=O)OC(C)(C)C)C(=O)O[C@@H](C)[C@@H]1CCC(C)C [Compound 39, tert-butyl ((3S,7R,8S,9S)-8-isopentyl-9-methyl-2-oxo-7-propoxy-1,5-dioxonan-3-yl)carbamate] | – | – | – | – | 74 to 77 °C | – | – | – | – | –
CCCO[C@H]1COC[C@H](NC(=O)c2nccc(OC)c2O)C(=O)O[C@@H](C)[C@@H]1CCC(C)C [Compound 53, 3-hydroxy-N-((3S,7R,8S,9S)-8-isopentyl-9-methyl-2-oxo-7-propoxy-1,5-dioxonan-3-yl)-4-methoxypicolinamide] | – | – | – | – | 54 to 57 °C | < 70% | < 70% | > 70% | > 70% | –
COc1ccnc(C(=O)N[C@H]2COC[C@H](OCC(C)C)[C@@H](Cc3ccccc3)[C@H](C)OC2=O)c1OC(C)=O [Compound 79] | > 70% | > 70% | > 70% | > 70% | 52 to 57 °C | – | – | – | – | –
COc1ccnc(C(=O)N[C@H]2COC[C@H](OC(=O)C3CC3)[C@@H](CCC(C)C)[C@H](C)OC2=O)c1OCOC(C)=O [Compound 57] | < 70% | > 70% | > 70% | > 70% | 45 to 50 °C | – | – | – | – | –
COc1ccnc(C(=O)N[C@H]2COC[C@H](OCC3CC3)[C@@H](Cc3ccccc3)[C@H](C)OC2=O)c1OC(C)=O [Compound 87] | – | – | – | – | 54 to 59 °C | > 70% | > 70% | > 70% | > 70% | –
COc1ccnc(C(=O)N[C@H]2COC[C@H](Oc3ccccc3)[C@@H](CCC(C)C)[C@H](C)OC2=O)c1O [Compound 60] | – | – | – | – | 58 to 62 °C | > 70% | < 70% | > 70% | > 70% | –
COc1ccnc(C(=O)N[C@H]2COC[C@H](OCOCc3ccccc3)[C@@H](Cc3ccccc3)[C@H](C)OC2=O)c1O [Compound 72, N-((3S,7R,8S,9S)-8-benzyl-7-((benzyloxy)methoxy)-9-methyl-2-oxo-1,5-dioxonan-3-yl)-3-hydroxy-4-methoxypicolinamide] | – | – | – | – | – | < 70% | < 70% | > 70% | < 70% | –
CC(C)CC[C@H]1[C@H](C)OC(=O)[C@@H](NC(=O)OC(C)(C)C)COC[C@@H]1OC(=O)C1CC1 [Compound 49, (3S,7R,8S,9S)-3-((tert-butoxycarbonyl)amino)-8-isopentyl-9-methyl-2-oxo-1,5-dioxonan-7-yl cyclopropanecarboxylate] | – | – | – | – | 92 to 95 °C | – | – | – | – | –
COc1ccnc(C(=O)N[C@H]2COC[C@H](Oc3ccccc3)[C@@H](Cc3ccccc3)[C@H](C)OC2=O)c1OCOC(C)=O [Compound 84] | > 70% | > 70% | > 70% | > 70% | – | – | – | – | – | –
COc1ccnc(C(=O)N[C@H]2COC[C@H](OCc3ccccc3)[C@@H](CCC(C)C)[C@H](C)OC2=O)c1OC(C)=O [Compound 67] | > 70% | > 70% | > 70% | > 70% | 55 to 61 °C | – | – | – | – | –
